This is an account of results in US12201628B2, “Neuronal modulation” (priority 2013, dated 2025).

Structures are written as SMILES.

For assay [1], the system named is DREADDs (hM3D(Gq)) expressing VTA dopaminergic neurons. Description: C-fos staining of VTA neurons after CNO injection. The settings on record: CNO 2.5 mg/kg, 90 min after injection. In kind it is in vivo, mice. The protocol:
Mice were anesthetized using a ketamine/xylazine mixture (ketamine 80 mg/kg; xylazine 15-20 mg/kg) diluted in sterile saline solution (NaCl 0.9%), before being fixed in the stereotactic frame (Stoelting, IL, US). The AAV8 virus, purchased from the vector core at the University of North Carolina, was used to induce Cre-dependent DREADD expression (AAV8-hSyn-DIO-hM3D(Gq)-mCherry), by injection of 0.7 μl into the right VTA region (anterior-posterior −3.2 mm; media-lateral 0.48 mm; dorsal-ventral 4.7 mm (mouse coordinates)). […] 30 days post surgery passed in order to assure the expression of DREADDs. […]
Validation of the virus injection site and evaluation of the DREADDs expression were performed by immunohistochemistry. […] The tissues were stained for TH with mouse anti-TH (1:200; Millipore) and the proportion of the DREADDs expressing cells (mCherry+) out of the total TH+ in the VTA was evaluated (1800 cells). […] The proportion of the c-fos+ cell nuclei from the total number of DREADDs-expressing cells was calculated. […] The quantification of double-positive cells was performed using Imaris Software.
Efficiency of the viral infection in the dopaminergic (TH+) VTA neurons was 58±4% (FIG. 6B). […] Neuronal activation was determined by C-fos staining, an immediate early activation marker. […]

The subject of a further assay is E. coli. Description: In-vitro E. coli killing assay with spleen monocytes/macrophages. The class given is cell-based, mice. The settings on record: monocytes/macrophages from spleens 24 h after CNO; VTA-activated vs control; intact SNS. As for the experimental part: To evaluate the anti-bacterial efficiency of the spleen monocytes, an in-vitro killing assay was performed. Splenocytes from VTA-activated and control mice were extracted 24 hour after IP injection of CNO. Splenocytes underwent a monocyte enrichment negative selection procedure using the EasySep mouse monocyte enrichment kit (Stem-Cells Technologies, Vancouver, Canada). Enriched monocytes co-cultured with E. coli bacteria at a 12:1 ratio, in RPMI medium containing 10% foetal bovine serum, and incubated at 37° C. for 4 h. Monocytes were then lysed by adding 0.1% Triton X-100 (Sigma-Aldrich, US), and the lysates were diluted ×1000 in PBS. The diluted media were plated onto agar petri dishes, which were then incubated overnight at 37° C. Twelve hours later, the number of remaining bacteria colonies was counted.
To test for functional changes in immune activity following VTA activation, monocytes/macrophages were assayed (the most profound changes in the CyTOF screen). Due to the increase in CD206 levels on these cells, their phagocytic capacity was examined. Cd11b+, Ly6G-cells were isolated from the spleens of both VTA-activated and control mice 24 h following CNO injection. Cells were cultured with E. coli for four hours and then lysed.
The remaining media was plated on agar plates and counted the remaining bacteria colonies. […]

The next assay has as its system GFP-expressing E. coli. Description: In-vivo E. coli phagocytosis. Also noted: species or system mice. The settings on record: E. coli injected 24 h after VTA activation, analysed 2 h later; vs controls. The protocol: Virus-injected mice were IP treated with CNO. Twenty four hours later, GFP-expressing E. coli (MG165K12; 8×10^8 CFU/mouse) were injected IP. After two hours, the peritoneal lymphocytes were collected by peritoneal lavage. For peritoneal lavage, the mice were sacrificed and their skin was cleaned with 70% ethanol. Then, 5 ml ice-cold PBS containing 1% fetal bovine serum were injected into the peritoneum, followed by gentle massage to allow distribution of the lavage fluid throughout the peritoneal cavity. The fluid was then collected using a 5 ml syringe attached to a 21-gauge needle, and cells were then washed twice in FACS staining buffer (PBS containing 1% bovine serum albumin and 0.05% sodium azide). In order to evaluate the degree of monocyte phagocytosis of the fluorescent bacteria, peritoneal lavage cells were stained with PerCP-conjugated anti-CD11b antibody (M1/70, Biolegend). All samples were analyzed on an LSRFortessa cell analyzer (BD Biosciences, NJ). […]
To determine the effects of VTA activation on antibacterial activity in vivo, the VTA-dopaminergic neurons were activated, and 24 h later injected the mice with GFP-expressing E. coli. Two hours later, lymphocytes were extracted from the peritoneal cavity of the mice and determined by flow cytometry GFP levels; only cells that phagocytized the E. coli could express GFP.

For assay [2], the system named is immune populations in the spleen. Description: CyTOF of spleen after VTA DA activation and LPS injection. The class given is in vivo, mice. The settings on record: spleen 24 h after VTA DA activation and LPS injection; Gq vs control. As for the experimental part:
FIGS. 3A-3E. Are graphs showing the effects of VTA DA neurons activation on a numbers of defined immune populations in the spleen as determined by CyTOF. FIG. 3A is an experimental timeline: spleens were collected from control and Gq mice 24 h after VTA DA activation and LPS injection (5 ug/kg). […] The individual ions were counted and then parsed into a flow cytometry file format. This file can be analyzed by traditional flow cytometry software or by SPADE, which allows integrating the complex information. SPADE analysis is composed of several steps: A density-dependent down-sampling of the original data is clustered. Adjacent clusters are drawn in alternating colors. Minimum spanning tree that connects the cell clusters is generated and color-coded. Nodes are colored by the number of cells in each cluster (7-547 cells). This allows visualization of the changes in the various immune populations. Cluster of CD8, CD4, NK B cell and monocytes are indicated.
CyTOF mass cytometry: Single-cell suspensions of cells from the blood/bone marrow/spleen/lymph nodes of the treated mice are stained with monoclonal or polyclonal antibodies, conjugated to metal probes. […]

Turning to `C[N+]1([O-])CCN(C2=Nc3cc(Cl)ccc3Nc3ccccc32)CC1` [CNO, clozapine-N-oxide], in assay [1] (VTA-activated (hM3D(Gq)) mice), the “C-fos expression in DREADDs-infected cells” value came to 42±0.5%. Also, in assay [1] (control mice (sham mCherry virus without DREADDs)), the “C-fos expression in virus infected cells” value is on record as 3±1%. In addition, the “number of remaining E. coli colonies” value in the assay with E. coli is recorded as “significant decrease”. In addition, the “number of CD11b+GFP+ cells in the peritoneum” value in the assay with GFP-expressing E. coli is listed as “increased number of CD11b+GFP+ cells”. Besides, in assay [2], the “levels of CD69” value is “No change was detected”.
